Measured values published in patent US7402548B2, “Benzoxazole compounds, process for producing the same and herbicides” (Kyoyu Agri Co., Ltd., priority 2000, dated 2008).

Assays:
corn [1] = experiment: Soil treatment test for upland field; assay type: in vivo; parameters: key: 0 = normal development, 5 = all killed; settings: 500 g/ha, 3 weeks, glass house 25° C.
Experimental: (§1) The herbicidal effects are evaluated according to the following 6 ranks as compared with non-treated district. (0: normal development, 1: Less damaged, 2: Slightly damaged, 3: Moderately damaged, 4: Severely damaged, 5: All killed). Incidentally, “-” in the column means not investigated.
(§2) Wagner pots, each having an area of 1/5000 are, were packed with Ube soil (alluvial soil), and then each seed of corn, soybean, cotton, wheat, solgum, sugar beat, Large crabgrass, barnyard grass, green foxtail, blackgrass, annual bluegrass, common lambsquarters, livid amaranth, velvetleaf, morning glory, common Cocklebur (Xanthium strumarium) and sicklepod (Cassia obtusifolia) were planted and covered with soil.
(§3) Each wettable powder of the desired compounds (I) shown in Tables 1 to 21, 24, 25, 28 and 29 prepared in accordance with Example 2 was diluted with water containing a surfactant (0.05%) and uniformly sprayed on the surface of each soil so that an effective concentration of the compound (I) in each herbicide became 500 g/ha.
(§4) These plants were controlled in a glass house at an average temperature of 25° C. for 3 weeks, and then herbicidal effects thereof were investigated.
(§5) The herbicidal effects were evaluated according to the evaluation method described in the above (1).

solgum [2] = experiment: Soil treatment test for upland field; assay type: in vivo; parameters: key: 0 = normal development, 5 = all killed; settings: 500 g/ha, 3 weeks, glass house 25° C.
Experimental: as §1, §2, §3, §4, §5

sugar beat [3] = experiment: Soil treatment test for upland field; assay type: in vivo; parameters: key: 0 = normal development, 5 = all killed; settings: 500 g/ha, 3 weeks, glass house 25° C.
Experimental: as §1, §2, §3, §4, §5

wheat [4] = experiment: Soil treatment test for upland field; assay type: in vivo; parameters: key: 0 = normal development, 5 = all killed; settings: 500 g/ha, 3 weeks, glass house 25° C.
Experimental: as §1, §2, §3, §4, §5

Large crabgrass [5] = experiment: Soil treatment test for upland field; assay type: in vivo, Digitaria adscendens; parameters: key: 0 = normal development, 5 = all killed; settings: 500 g/ha, 3 weeks, glass house 25° C.
Experimental: as §1, §2, §3, §4, §5

barnyard grass = experiment: Soil treatment test for upland field; assay type: in vivo, Eschinochloa crusgalli; parameters: key: 0 = normal development, 5 = all killed; settings: 500 g/ha, 3 weeks, glass house 25° C.
Experimental: as §1, §2, §3, §4, §5

green foxtail [6] = experiment: Soil treatment test for upland field; assay type: in vivo, Setaria viridis; parameters: key: 0 = normal development, 5 = all killed; settings: 500 g/ha, 3 weeks, glass house 25° C.
Experimental: as §1, §2, §3, §4, §5

blackgrass [7] = experiment: Soil treatment test for upland field; assay type: in vivo, Alopecurus aegualis; parameters: key: 0 = normal development, 5 = all killed; settings: 500 g/ha, 3 weeks, glass house 25° C.
Experimental: as §1, §2, §3, §4, §5

annual bluegrass [8] = experiment: Soil treatment test for upland field; assay type: in vivo, Poa annua; parameters: key: 0 = normal development, 5 = all killed; settings: 500 g/ha, 3 weeks, glass house 25° C.
Experimental: as §1, §2, §3, §4, §5

common lambsquarters [9] = experiment: Soil treatment test for upland field; assay type: in vivo, Chenopodium album; parameters: key: 0 = normal development, 5 = all killed; settings: 500 g/ha, 3 weeks, glass house 25° C.
Experimental: as §1, §2, §3, §4, §5

livid amaranth [10] = experiment: Soil treatment test for upland field; assay type: in vivo, Amaranthus lividus; parameters: key: 0 = normal development, 5 = all killed; settings: 500 g/ha, 3 weeks, glass house 25° C.
Experimental: as §1, §2, §3, §4, §5

velvetleaf [11] = experiment: Soil treatment test for upland field; assay type: in vivo, Abutilon theophrasti; parameters: key: 0 = normal development, 5 = all killed; settings: 500 g/ha, 3 weeks, glass house 25° C.
Experimental: as §1, §2, §3, §4, §5

morning glory [12] = experiment: Soil treatment test for upland field; assay type: in vivo, Ipomoea spps.; parameters: key: 0 = normal development, 5 = all killed; settings: 500 g/ha, 3 weeks, glass house 25° C.
Experimental: as §1, §2, §3, §4, §5

corn [13] = experiment: Foliar spread test for upland field; assay type: in vivo; parameters: key: 0 = normal development, 5 = all killed (6 ranks vs. untreated); settings: foliar spray, 500 ppm, 3 weeks, glass house 25° C.
Experimental: as §1
(§6) Wagner pots, each having an area of 1/5000 are, were packed with volcanic ash soil and then each seed of corn, soybean, cotton, wheat, solgum, sugar beat, Large crabgrass, barnyardgrjass, green foxtail, blackgrass, annual bluegrass, common lambsquarters, livid amaranth, velvetleaf, morning glory, Xanthium pensylvanicum and Cassia obtusifolia was planted, covered with soil and grown in a glass house at an average temperature of 25° C. for about 2 weeks.
(§7) Each wettable powder of the desired compounds (I) shown in Tables 1 to 21, 24, 25, 28 and 29 prepared in accordance with Example 2 was diluted to 500 ppm with water containing a surfactant (0.5%) and then uniformly sprayed on the above respective plants.
(§8) After these plants were controlled in a glass house at an average temperature of 25° C. for 3 weeks, the herbicidal effects thereof were investigated.
as §5

cotton = experiment: Foliar spread test for upland field; assay type: in vivo; parameters: key: 0 = normal development, 5 = all killed (6 ranks vs. untreated); settings: foliar spray, 500 ppm, 3 weeks, glass house 25° C.
Experimental: as §1, §6, §7, §8, §5

solgum [14] = experiment: Foliar spread test for upland field; assay type: in vivo; parameters: key: 0 = normal development, 5 = all killed (6 ranks vs. untreated); settings: foliar spray, 500 ppm, 3 weeks, glass house 25° C.
Experimental: as §1, §6, §7, §8, §5

soybean = experiment: Foliar spread test for upland field; assay type: in vivo; parameters: key: 0 = normal development, 5 = all killed (6 ranks vs. untreated); settings: foliar spray, 500 ppm, 3 weeks, glass house 25° C.
Experimental: as §1, §6, §7, §8, §5

sugar beat [15] = experiment: Foliar spread test for upland field; assay type: in vivo; parameters: key: 0 = normal development, 5 = all killed (6 ranks vs. untreated); settings: foliar spray, 500 ppm, 3 weeks, glass house 25° C.
Experimental: as §1, §6, §7, §8, §5

wheat [16] = experiment: Foliar spread test for upland field; assay type: in vivo; parameters: key: 0 = normal development, 5 = all killed (6 ranks vs. untreated); settings: foliar spray, 500 ppm, 3 weeks, glass house 25° C.
Experimental: as §1, §6, §7, §8, §5

Large crabgrass [17] = experiment: Foliar spread test for upland field; assay type: in vivo, Digitaria adscendens; parameters: key: 0 = normal development, 5 = all killed (6 ranks vs. untreated); settings: foliar spray, 500 ppm, 3 weeks, glass house 25° C.
Experimental: as §1, §6, §7, §8, §5

barnyardgrjass = experiment: Foliar spread test for upland field; assay type: in vivo, Eschinochloa crusgalli; parameters: key: 0 = normal development, 5 = all killed (6 ranks vs. untreated); settings: foliar spray, 500 ppm, 3 weeks, glass house 25° C.
Experimental: as §1, §6, §7, §8, §5

green foxtail [18] = experiment: Foliar spread test for upland field; assay type: in vivo, Setaria viridis; parameters: key: 0 = normal development, 5 = all killed (6 ranks vs. untreated); settings: foliar spray, 500 ppm, 3 weeks, glass house 25° C.
Experimental: as §1, §6, §7, §8, §5

blackgrass [19] = experiment: Foliar spread test for upland field; assay type: in vivo, Alopecurus aegualis; parameters: key: 0 = normal development, 5 = all killed (6 ranks vs. untreated); settings: foliar spray, 500 ppm, 3 weeks, glass house 25° C.
Experimental: as §1, §6, §7, §8, §5

annual bluegrass [20] = experiment: Foliar spread test for upland field; assay type: in vivo, Poa annua; parameters: key: 0 = normal development, 5 = all killed (6 ranks vs. untreated); settings: foliar spray, 500 ppm, 3 weeks, glass house 25° C.
Experimental: as §1, §6, §7, §8, §5

common lambsquarters [21] = experiment: Foliar spread test for upland field; assay type: in vivo, Chenopodium album; parameters: key: 0 = normal development, 5 = all killed (6 ranks vs. untreated); settings: foliar spray, 500 ppm, 3 weeks, glass house 25° C.
Experimental: as §1, §6, §7, §8, §5

livid amaranth [22] = experiment: Foliar spread test for upland field; assay type: in vivo, Amaranthus lividus; parameters: key: 0 = normal development, 5 = all killed (6 ranks vs. untreated); settings: foliar spray, 500 ppm, 3 weeks, glass house 25° C.
Experimental: as §1, §6, §7, §8, §5

velvetleaf [23] = experiment: Foliar spread test for upland field; assay type: in vivo, Abutilon theophrasti; parameters: key: 0 = normal development, 5 = all killed (6 ranks vs. untreated); settings: foliar spray, 500 ppm, 3 weeks, glass house 25° C.
Experimental: as §1, §6, §7, §8, §5

morning glory [24] = experiment: Foliar spread test for upland field; assay type: in vivo, Ipomoea spps.; parameters: key: 0 = normal development, 5 = all killed (6 ranks vs. untreated); settings: foliar spray, 500 ppm, 3 weeks, glass house 25° C.
Experimental: as §1, §6, §7, §8, §5

Compound	Effects Corn (corn [1])	Effects Solgum (solgum [2])	Effects Wheat (wheat [4])	Effects Large crabgrass (Large crabgrass [5])	Effects Barnyardgrass (barnyard grass)	Effects Green foxtail (green foxtail [6])	Effects Blackgrass (blackgrass [7])	Effects Annual bluegrass (annual bluegrass [8])	Effects Common lambsquarters (common lambsquarters [9])	Effects Livid amaranth (livid amaranth [10])	Effects Morning glory (morning glory [12])	Effects Corn (corn [13])	Effects Sotton (cotton)	Effects Solgum (solgum [14])	Effects Soybean (soybean)	Effects Sugar beat (sugar beat [15])	Effects Wheat (wheat [16])	Effects Large crabgrass (Large crabgrass [17])	Effects Barnyardgrass (barnyardgrjass)	Effects Green foxtail (green foxtail [18])	other results
CCC(=Cc1cccc(C(F)(F)F)c1)c1nc2ccc([N+](=O)[O-])cc2o1 [I-c-15]	1	1	1	5	4	5	5	5	5	5	2	2	3	2	5	4	2	4	3	4	Effects Sugar beat (sugar beat [3]): 2; Effects Velvetleaf (velvetleaf [11]): 2; Effects Blackgrass (blackgrass [19]): 3; Effects Annual bluegrass (annual bluegrass [20]): 4; Effects Common lambsquarters (common lambsquarters [21]): 5; Effects Livid amaranth (livid amaranth [22]): 5; Effects Velvetleaf (velvetleaf [23]): 3; Effects Morning glory (morning glory [24]): 5
CC(=Cc1cccc(C(F)(F)F)c1)c1nc2cc(F)ccc2o1 [I-c-40]	0	2	0	5	5	5	4	5	5	5	3	2	1	1	4	4	1	3	1	2	Effects Sugar beat (sugar beat [3]): 1; Effects Blackgrass (blackgrass [19]): 2; Effects Annual bluegrass (annual bluegrass [20]): 2; Effects Common lambsquarters (common lambsquarters [21]): 4; Effects Livid amaranth (livid amaranth [22]): 4; Effects Velvetleaf (velvetleaf [23]): 1; Effects Morning glory (morning glory [24]): 3
CCCC(=Cc1cccc(C(F)(F)F)c1)c1nc2cc(F)ccc2o1 [I-c-44]	2	3	2	5	5	5	5	5	5	5	2	2	3	2	5	3	2	4	2	4	Effects Sugar beat (sugar beat [3]): 5; Effects Velvetleaf (velvetleaf [11]): 3; Effects Blackgrass (blackgrass [19]): 3; Effects Annual bluegrass (annual bluegrass [20]): 4; Effects Common lambsquarters (common lambsquarters [21]): 5; Effects Livid amaranth (livid amaranth [22]): 5; Effects Velvetleaf (velvetleaf [23]): 2; Effects Morning glory (morning glory [24]): 5
CCCC(=Cc1cccc(C(F)(F)F)c1)c1nc2cc(Cl)ccc2o1 [I-c-57]	2	2	2	5	5	5	5	5	5	5	3	2	4	2	5	3	2	4	3	5	Effects Velvetleaf (velvetleaf [11]): 5; Effects Blackgrass (blackgrass [19]): 3; Effects Annual bluegrass (annual bluegrass [20]): 4; Effects Common lambsquarters (common lambsquarters [21]): 5; Effects Livid amaranth (livid amaranth [22]): 4; Effects Velvetleaf (velvetleaf [23]): 3; Effects Morning glory (morning glory [24]): 5
